The NIST ThermoML archive (doi:10.1021/je400250u)

Assays:
[1] = xn = mol fraction of the nth substance listed; conditions: 100 kPa, Liquid; for viscosity: Capillary tube (Ostwald / Ubbelohde) method; for mass density: Vibrating tube method
[2] = refractive index (Na D-line) (dimensionless); xn = mol fraction of the nth substance listed; conditions: 100 kPa, Liquid, Standard Abbe refractometry

C1CC[C@H]2CCCC[C@@H]2C1 [trans-decahydronaphthalene] + CCCCCCCCCCC
Conditions | mass density, [1] [kg/m3] | refractive index, [2] | viscosity, [1] [mPa·s]
298.15 K, x1 = 0.1041 | – | 1.4188 | –
298.15 K, x1 = 0.2052 | – | 1.423 | –
298.15 K, x1 = 0.3027 | – | 1.4272 | –
298.15 K, x1 = 0.3999 | – | 1.4319 | –
298.15 K, x1 = 0.4997 | – | 1.4367 | –
298.15 K, x1 = 0.5991 | – | 1.4421 | –
298.15 K, x1 = 0.6991 | – | 1.4476 | –
298.15 K, x1 = 0.8019 | – | 1.4535 | –
298.15 K, x1 = 0.8992 | – | 1.4594 | –
298.15 K, x1 = 1 | – | 1.4662 | –
308.15 K, x1 = 0.1041 | – | 1.4143 | –
308.15 K, x1 = 0.2052 | – | 1.419 | –
308.15 K, x1 = 0.3027 | – | 1.4232 | –
308.15 K, x1 = 0.3999 | – | 1.428 | –
308.15 K, x1 = 0.4997 | – | 1.4331 | –
308.15 K, x1 = 0.5991 | – | 1.4378 | –
308.15 K, x1 = 0.6991 | – | 1.4434 | –
308.15 K, x1 = 0.8019 | – | 1.4496 | –
308.15 K, x1 = 0.8992 | – | 1.4559 | –
308.15 K, x1 = 1 | – | 1.4618 | –
313.15 K, x1 = 0.1041 | 736.25 | – | –
313.15 K, x1 = 0.2052 | 747.11 | – | –
313.15 K, x1 = 0.3027 | 758.09 | – | –
313.15 K, x1 = 0.3999 | 769.57 | – | –
313.15 K, x1 = 0.4997 | 781.99 | – | –
313.15 K, x1 = 0.5991 | 794.96 | – | 1.117
313.15 K, x1 = 0.6991 | 808.67 | – | 1.182
313.15 K, x1 = 0.8019 | 823.59 | – | 1.267
313.15 K, x1 = 0.8992 | 838.5 | – | 1.364
313.15 K, x1 = 1 | 854.88 | – | 1.505
318.15 K, x1 = 0.1041 | 732.53 | 1.4099 | 0.842
318.15 K, x1 = 0.2052 | 743.39 | 1.4146 | 0.869
318.15 K, x1 = 0.3027 | 754.37 | 1.4191 | 0.908
318.15 K, x1 = 0.3999 | 765.85 | 1.4236 | 0.94
318.15 K, x1 = 0.4997 | 778.27 | 1.4281 | 0.988
318.15 K, x1 = 0.5991 | 791.24 | 1.4332 | 1.042
318.15 K, x1 = 0.6991 | 804.95 | 1.439 | 1.101
318.15 K, x1 = 0.8019 | 819.87 | 1.4452 | 1.18
318.15 K, x1 = 0.8992 | 834.77 | 1.4515 | 1.267
318.15 K, x1 = 1 | 851.14 | 1.4581 | 1.394
323.15 K, x1 = 0.1041 | 728.79 | – | 0.789
323.15 K, x1 = 0.2052 | 739.66 | – | 0.815
323.15 K, x1 = 0.3027 | 750.64 | – | 0.852
323.15 K, x1 = 0.3999 | 762.12 | – | 0.881
323.15 K, x1 = 0.4997 | 774.54 | – | 0.924
323.15 K, x1 = 0.5991 | 787.51 | – | 0.975
323.15 K, x1 = 0.6991 | 801.22 | – | 1.028
323.15 K, x1 = 0.8019 | 816.14 | – | 1.1
323.15 K, x1 = 0.8992 | 831.03 | – | 1.18
323.15 K, x1 = 1 | 847.4 | – | 1.295
